Laboratory results taken from ChEMBL document CHEMBL4118084, “Chemical Approaches to Intervening in Ubiquitin Specific Protease 7 (USP7) Function for Oncology and Immune Oncology Therapies” (J Med Chem, 2018).
Each block holds one compound with its values, some of them ahead of it.

Columns and labels:
[1] = molecular target: T1, Ubiquitin carboxyl-terminal hydrolase 7 (Homo sapiens, UniProt Q93009); experiment: Inhibition of full-length recombinant USP7 (unknown origin) expressed in Sf9 cells using Ub-EKL as substrate preincubated for 30 mins followed by substrate addition by fluorescence based assay
[2] = molecular target: Ubiquitin carboxyl-terminal hydrolase 7 (Homo sapiens, UniProt Q93009, C223A); experiment: Inhibition of human full-length wild-type His-tagged catalytic USP7 […] expressed in baculovirus infected Sf9 cells using Ub-AMC as substrate preincubated for 30 mins followed by substrate addition measured after 1 hrs by fluorometric analysis
[3] = molecular target: T1, Ubiquitin carboxyl-terminal hydrolase 7; experiment: Inhibition of USP7 (unknown origin) using human N-terminal GST-tagged UBA52 as substrate preincubated for 10 mins followed by substrate addition measured after 45 mins by coomassie brilliant blue staining-based SDS-PAGE analysis
[4] = molecular target: T1, Ubiquitin carboxyl-terminal hydrolase 7; experiment: Inhibition of USP7 (unknown origin) using Ub-Rh110 as substrate by fluorescence based assay
[5] = molecular target: T1, Ubiquitin carboxyl-terminal hydrolase 7; experiment: Inhibition of USP7 (unknown origin)
[6] = molecular target: T1, Ubiquitin carboxyl-terminal hydrolase 7; experiment: Inhibition of human recombinant 6His-tagged USP7 using Ub-Rh110 as substrate preincubated for 30 mins followed by substrate addition measured after 180 mins by fluorometric analysis
[7] = Inhibition of mouse CD4+/CD25+ Treg cells-mediated suppression of CD3-stimulated T-effector cell proliferation after 72 hrs by CellTrace violet dye-based assay; format: functional
[8] = molecular target: T1, Ubiquitin carboxyl-terminal hydrolase 7; experiment: Inhibition of full-length native C-terminal USP7 (unknown origin) using Ub-Rho110 as substrate after 1 hr by fluorescence assay
[9] = molecular target: T1, Ubiquitin carboxyl-terminal hydrolase 7; experiment: Inhibition of USP7 in human SJSA cells assessed as increase in ubiquitinated MDM2 level after 20 hrs in presence of MG132 by MSD assay; format: cell-based
[10] = molecular target: T2, Ubiquitin carboxyl-terminal hydrolase 2 (Homo sapiens, UniProt O75604); experiment: Inhibition of USP2 (unknown origin)
T2 sequence (O75604 whole entry): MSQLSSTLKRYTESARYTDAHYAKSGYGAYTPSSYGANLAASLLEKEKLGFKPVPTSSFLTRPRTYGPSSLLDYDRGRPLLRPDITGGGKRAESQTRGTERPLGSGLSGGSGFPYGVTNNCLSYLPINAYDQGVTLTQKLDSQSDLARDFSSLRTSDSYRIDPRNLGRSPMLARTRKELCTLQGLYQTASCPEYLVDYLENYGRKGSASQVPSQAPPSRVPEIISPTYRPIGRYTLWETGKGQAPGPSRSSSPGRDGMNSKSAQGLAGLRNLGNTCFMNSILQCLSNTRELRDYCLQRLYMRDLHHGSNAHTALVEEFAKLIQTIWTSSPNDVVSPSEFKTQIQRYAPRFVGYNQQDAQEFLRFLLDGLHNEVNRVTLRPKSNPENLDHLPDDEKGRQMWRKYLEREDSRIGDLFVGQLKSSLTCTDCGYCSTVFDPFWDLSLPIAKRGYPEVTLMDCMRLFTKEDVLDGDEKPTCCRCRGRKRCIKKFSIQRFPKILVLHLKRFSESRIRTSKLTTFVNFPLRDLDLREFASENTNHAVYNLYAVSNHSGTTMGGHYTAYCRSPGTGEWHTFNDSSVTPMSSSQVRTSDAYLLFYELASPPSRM

[11] = molecular target: T1, Ubiquitin carboxyl-terminal hydrolase 7; experiment: Inhibition of full-length USP7 (unknown origin) using Ub-AMC as substrate preincubated for 20 mins followed by substrate addition measured after 50 mins
[12] = molecular target: T3, Ubiquitin carboxyl-terminal hydrolase 47 (Homo sapiens, UniProt Q96K76); experiment: Inhibition of USP47 (unknown origin) using Ub-AMC as substrate preincubated for 20 mins followed by substrate addition measured after 50 mins
T3 sequence (Q96K76 whole entry): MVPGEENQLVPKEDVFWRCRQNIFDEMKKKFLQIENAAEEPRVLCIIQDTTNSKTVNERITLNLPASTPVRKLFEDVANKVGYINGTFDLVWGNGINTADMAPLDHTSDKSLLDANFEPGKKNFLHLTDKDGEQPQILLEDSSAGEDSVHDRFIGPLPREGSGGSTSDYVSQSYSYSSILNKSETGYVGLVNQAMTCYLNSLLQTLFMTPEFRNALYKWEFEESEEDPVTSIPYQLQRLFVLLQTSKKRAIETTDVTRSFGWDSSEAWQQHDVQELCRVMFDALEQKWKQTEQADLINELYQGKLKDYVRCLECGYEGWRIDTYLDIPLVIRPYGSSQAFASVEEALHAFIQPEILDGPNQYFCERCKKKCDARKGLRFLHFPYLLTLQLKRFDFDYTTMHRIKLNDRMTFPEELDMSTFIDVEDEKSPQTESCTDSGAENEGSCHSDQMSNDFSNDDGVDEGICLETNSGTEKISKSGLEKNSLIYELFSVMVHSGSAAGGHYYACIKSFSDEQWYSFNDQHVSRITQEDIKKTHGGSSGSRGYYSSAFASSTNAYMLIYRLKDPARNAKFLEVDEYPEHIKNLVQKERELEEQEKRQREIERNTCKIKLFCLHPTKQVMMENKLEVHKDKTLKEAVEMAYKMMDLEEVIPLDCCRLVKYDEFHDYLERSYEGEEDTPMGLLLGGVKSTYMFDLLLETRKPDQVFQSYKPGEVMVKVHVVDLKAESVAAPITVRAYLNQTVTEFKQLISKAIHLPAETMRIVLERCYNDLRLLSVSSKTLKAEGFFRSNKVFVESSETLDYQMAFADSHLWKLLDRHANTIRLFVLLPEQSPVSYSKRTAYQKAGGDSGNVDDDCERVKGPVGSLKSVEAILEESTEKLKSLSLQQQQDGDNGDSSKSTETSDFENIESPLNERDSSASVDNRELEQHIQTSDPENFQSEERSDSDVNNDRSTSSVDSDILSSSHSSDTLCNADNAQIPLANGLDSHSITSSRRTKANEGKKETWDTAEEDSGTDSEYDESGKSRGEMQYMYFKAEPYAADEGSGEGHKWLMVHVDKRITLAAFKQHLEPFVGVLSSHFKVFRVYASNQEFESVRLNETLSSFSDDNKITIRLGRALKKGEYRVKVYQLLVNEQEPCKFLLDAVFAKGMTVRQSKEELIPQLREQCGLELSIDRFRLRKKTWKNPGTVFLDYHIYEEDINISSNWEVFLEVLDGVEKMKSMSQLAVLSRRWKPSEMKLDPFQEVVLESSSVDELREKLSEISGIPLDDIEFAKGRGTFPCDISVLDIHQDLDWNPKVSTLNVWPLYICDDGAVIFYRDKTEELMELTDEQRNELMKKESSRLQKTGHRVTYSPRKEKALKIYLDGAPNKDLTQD

T1 sequence (Q93009 whole entry): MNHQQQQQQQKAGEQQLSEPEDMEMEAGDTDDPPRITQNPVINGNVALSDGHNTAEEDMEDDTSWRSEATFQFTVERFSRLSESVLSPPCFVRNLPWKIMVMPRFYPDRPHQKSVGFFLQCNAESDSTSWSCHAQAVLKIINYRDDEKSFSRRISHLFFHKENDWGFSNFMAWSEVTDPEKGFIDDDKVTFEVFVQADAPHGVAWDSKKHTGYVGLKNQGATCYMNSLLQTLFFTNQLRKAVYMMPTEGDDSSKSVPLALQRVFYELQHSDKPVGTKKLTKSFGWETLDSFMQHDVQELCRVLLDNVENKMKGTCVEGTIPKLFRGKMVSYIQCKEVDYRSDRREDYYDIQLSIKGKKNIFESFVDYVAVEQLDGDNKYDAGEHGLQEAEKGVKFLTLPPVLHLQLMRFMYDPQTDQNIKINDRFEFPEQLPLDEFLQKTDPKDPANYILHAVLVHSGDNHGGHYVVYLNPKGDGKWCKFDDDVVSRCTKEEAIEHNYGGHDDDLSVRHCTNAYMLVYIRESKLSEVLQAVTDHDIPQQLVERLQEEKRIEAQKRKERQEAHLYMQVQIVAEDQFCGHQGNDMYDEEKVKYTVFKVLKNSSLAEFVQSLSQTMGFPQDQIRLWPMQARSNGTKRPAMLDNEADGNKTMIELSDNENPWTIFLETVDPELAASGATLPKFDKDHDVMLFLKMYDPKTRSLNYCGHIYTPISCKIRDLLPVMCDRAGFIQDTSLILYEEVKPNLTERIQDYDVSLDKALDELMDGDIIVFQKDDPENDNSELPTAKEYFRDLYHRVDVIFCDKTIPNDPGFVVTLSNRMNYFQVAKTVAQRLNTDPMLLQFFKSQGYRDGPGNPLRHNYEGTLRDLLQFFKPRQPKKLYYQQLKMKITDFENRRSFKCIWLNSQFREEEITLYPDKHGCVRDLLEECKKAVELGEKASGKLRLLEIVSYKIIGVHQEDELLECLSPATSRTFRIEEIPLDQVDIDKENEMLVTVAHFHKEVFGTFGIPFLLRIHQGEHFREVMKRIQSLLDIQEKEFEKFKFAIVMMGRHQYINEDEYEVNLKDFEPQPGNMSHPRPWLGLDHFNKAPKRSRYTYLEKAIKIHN
Chain of Ubiquitin carboxyl-terminal hydrolase 7 (Homo sapiens, UniProt Q93009, C223A) (Q93009 whole entry C223A): as the sequence (Q93009 whole entry) above, with C223A counted along it

- IC50 [1]: > 50 µM
Compound: CC(=O)c1cc([N+](=O)[O-])c(Sc2ccccc2)s1

- IC50 [3]: 25 µM
Compound: COC(=O)[C@]12CCC(C)(C)C[C@H]1[C@H]1C(=O)C=C3[C@@]4(C)CC(C#N)C(=O)C(C)(C)[C@@H]4CC[C@@]3(C)[C@]1(C)CC2 (some centres undefined)

- IC50 [4]: 0.2 to 1 µM
Compound: CC(CC(=O)N1CCC(O)(C(C)n2cnc3c(cnn3C)c2=O)CC1)c1ccccc1 (centres undefined)

- IC50 [5]: 0.13 µM
Compound: O=C(Nc1ccc2c(c1)S(=O)(=O)CC2)c1cc([N+](=O)[O-])c(Sc2c(Cl)cncc2Cl)s1

- IC50 [4]: 0.3 to 1 µM
Compound: CCCc1cc2c(=O)n(C(C)C3(O)CCN(C(=O)CC(C)c4ccccc4)CC3)cnc2s1 (centres undefined)

- IC50 [5]: 8.2 µM
Compound: O=C(Nc1cccc(CN2CCCC2)c1)c1ccc2nc3c(c(Cl)c2c1)CCCC3

- IC50 [4]: 0.2 to 1 µM
Compound: CC(CC(=O)N1CCC(O)(C(C)n2cnn3cccc3c2=O)CC1)c1ccccc1 (centres undefined)

- IC50 [4]: < 0.5 µM
Compound: CC(CC(=O)N1CCC(O)(C(C)n2cnc3cc[nH]c3c2=O)CC1)c1ccccc1 (centres undefined)

- IC50 [8]: > 63.3 µM
- IC50 [9]: 2 µM
Compound: CCc1c(-c2ccc3c(cnn3C)c2)cnc(N)c1-c1ccc(O)cc1

- IC50 [5]: 0.2 µM
Compound: CN(C)CCCNC1CS(=O)(=O)c2cc(NC(=O)c3cc([N+](=O)[O-])c(Sc4c(Cl)cncc4Cl)s3)ccc21 (centres undefined)

- IC50 [4]: < 0.2 µM
Compound: CC(=O)Nc1ccc2c(=O)n(C(C)C3(O)CCN(C(=O)CC(C)c4ccccc4)CC3)cnc2c1 (centres undefined)

- IC50 [10]: 22 µM
Compound: COC(=O)[C@]12CCC(C)(C)C[C@H]1[C@H]1C(=O)C=C3[C@@]4(C)C=C(C#N)C(=O)C(C)(C)[C@@H]4CC[C@@]3(C)[C@]1(C)CC2 [BARDOXOLONE METHYL]

- IC50 [6]: 0.13 µM
Compound: C[C@@]12CCCc3coc(c31)C(=O)c1cc3c(cc12)C(=O)C=CC3=O [XESTOQUINONE]

Second part, the compound before the results:

Compound: CN(CCCNC(=O)c1ccc2nc3c(c(Cl)c2c1)CCCC3)Cc1ccccc1
- IC50 [2]: 28 µM

Compound: CC1=CS(=O)(=O)c2cc(NC(=O)c3cc([N+](=O)[O-])c(Sc4c(Cl)cncc4Cl)s3)ccc21
- IC50 [5]: 0.17 µM

Compound: C[C@@]12CCCc3coc(c31)C(=O)c1cc3c(=O)c4c(c(=O)c3cc12)c1c(=O)c2cc3c(cc2c(=O)c1c1c(=O)c2cc5c(cc2c(=O)c41)[C@]1(C)CCCc2coc(c21)C5=O)[C@]1(C)CCCc2coc(c21)C3=O
- IC50 [6]: 0.75 µM

Compound: COC(=O)/C=C/CNC(=O)c1cc([N+](=O)[O-])c(Sc2cccc(Cl)c2Cl)s1
- IC50 [7]: 0.58 µM

Compound: CC1CS(=O)(=O)c2cc(NC(=O)c3cc([N+](=O)[O-])c(Sc4c(Cl)cncc4Cl)s3)ccc21 (centres undefined)
- IC50 [5]: 0.075 µM

Compound: CC(=O)c1cnc(Sc2c(Cl)cncc2Cl)s1
- IC50 [5]: 22.6 µM

Compound: C[C@@]12CCCc3coc(c31)C(=O)c1cc3c(cc12)C(=O)C=C(C1=CC(=O)c2cc4c(cc2C1=O)C(=O)c1occ2c1[C@@]4(C)CCC2)C3=O
- IC50 [6]: 0.49 µM

Compound: O=C(Nc1ccc2c(c1)S(=O)(=O)C=C2)c1cc([N+](=O)[O-])c(Sc2c(Cl)cncc2Cl)s1
- IC50 [5]: 0.1 µM

Compound: C[C@H]1[C@H](C)CC[C@]2(C(=O)O)CC[C@]3(C)C(=CC[C@@H]4[C@@]5(C)CC[C@H](O)C(C)(C)[C@@H]5CC[C@]43C)[C@H]12 [URSOLIC ACID]
- IC50 [11]: 7 µM
- IC50 [12]: 26 µM
